Columns and labels:
Format in all cases: cell-based, mouse
[1] = test system: EC d4; experiment: Beta-galactosidase staining (senescence); settings: EC d4 48 h
Protocol: (§1) Beta-galactosidase activity was analyzed using the Cellular Senescence Assay Kit (Cell Biolabs, Inc., San Diego, CA, USA) according to the manufacturer’s instructions. After treatment and/or post-incubation period, the cells were fixed and stained (overnight, 37 °C). For control, untreated cells were incubated with working solution containing citrate-Na2HPO4 buffer at pH 4. The cells were analyzed by light microscopy (Axiovert 40 C, Carl Zeiss AG, 20x objective) and the fraction of beta-galactosidase positive (blue) cells was calculated (5 images per sample).

[2] = test system: EC d6; experiment: Beta-galactosidase staining (senescence); settings: EC d6 24 h + 24 h post incubation
Protocol: as §1

[3] = test system: EC d4; experiment: Dil-acLDL uptake; settings: EC d4 treated 48 h
Protocol: (§2) To monitor prototypical functions of endothelial cells, the uptake of fluorescent 1,1-dioctadecyl-3,3,3,3-tetra-methylindocarbocyanine-labeled acetylated LDL (Dil-acLDL) was examined. Briefly, cells were incubated with Dil-acLDL (10 µg/ml, 4 h, 37 °C). After fixation (3.7% cold formaldehyde/PBS (15 min, RT) nuclei were counterstained with DAPI. The uptake of DiI-acLDL was analyzed by fluorescence microscopy (Olympus BX43, 20x objective). Additionally, the response of differentiated EC to inflammatory cytokines was measured. After treatment with a pro-inflammatory cytokine mixture (TNFα/IL-1β, 10 ng/mL) for 1 h, mRNA expression of activated EC markers E-selectin, Icam-1, Vcam-1, Ccl2, eNos, iNos was analyzed (RT-qPCR).

[4] = test system: EC d4; experiment: Nuclear γH2AX / 53BP1 foci (DSB); settings: EC d4 48 h, equitoxic concentrations
Protocol: (§3) DNA double-strand breaks were monitored by immunocytochemical detection of nuclear γH2AX and 53BP1 foci. Cells were fixed with 3.7% formaldehyde/PBS (15 min, RT) and permeabilized (0.3% TritonX/PBS; 15 min, RT). […] Cell suspension was mixed with 0.5% low melting point agarose and applied onto glass slides coated with 1.5% agarose. After lysis in alkaline buffer (pH 10, 1 h, 4 °C, protected from light) and DNA denaturation in precooled electrophoresis buffer (pH > 13, 25 min, 4 °C, protected from light) electrophoresis was performed (300 mA, 25 V, 4 °C, 25 min).

[5] = test system: mESC; experiment: Nuclear γH2AX / 53BP1 foci (DSB); settings: mESC 24 h, equitoxic concentrations
Protocol: as §3

[6] = test system: EC d6; experiment: ZO1 tight junction immunofluorescence; settings: analysed 2 days later
[7] = test system: EC d4 (endothelial progenitor cells); experiment: RT-qPCR mRNA expression; settings: for Flk1 mRNA / Nanog mRNA / Oct4 mRNA / Pecam1 mRNA / Tie1 mRNA / VE-cad mRNA: analysed day 6, Fig 1C; for Ccl2 mRNA / Icam-1 mRNA / Vcam-1 mRNA / iNos mRNA / eNos mRNA: Fig 8D; for Gpx4 mRNA / Slc7a11 mRNA: Fig 6F
Protocol: Total RNA was purified using the RNeasy Mini Kit (Qiagen, Hilden, Germany). Reverse transcriptase (RT) reaction was performed with the HighCapacity cDNA Reverse Transcription Kit (Applied Biosystems, Darmstadt, Germany) using 900–2000 ng of RNA. Quantitative RT-qPCR analysis was performed using following conditions: (1) 95 °C–10 min; (2) 45 amplification cycles with 95 °C–15 s, 55 °C–15 s, and 72 °C–17 s; (3) 95 °C–1 min, 55 °C–1 min, 65 °C–5 s. If not stated otherwise, analyses were performed in technical triplicates using pooled samples from two independent experiments (each performed with biological duplicates) by use of a CFX96 cycler (BioRad) and the SensiMix SYBR Kit (Bioline, London, UK). The primers used for mRNA expression analyses are listed in Supplementary Table 1. To ensure the specificity of the amplification product, melting curves were recorded at the end of the run. mRNA expression levels were normalized to β-Actin and Gapdh. Relative mRNA expression in mESC or corresponding untreated controls was set to 1.0. Only changes in gene expression of ≤ 0.5- and ≥ 2-fold were considered as biologically relevant.
as §2

[8] = test system: mESC; experiment: EdU incorporation (S-phase activity); settings: mESC 24 h
[9] = test system: EC d4; experiment: VE-cadherin cell-cell junction immunostaining; settings: EC d4 treated 48 h
[10] = EC d4 + 0.005 µM 48 h, analysed in EC d6
[11] = EC d4 + 0.005 µM 48 h, then + I/T (IL-1β/TNFα 10 ng/ml, 1 h)
[12] = EC d4 + 0.05 µM 48 h, analysed in EC d6
[13] = EC d4 + 0.05 µM 48 h, then + I/T (IL-1β/TNFα 10 ng/ml, 1 h)

## COc1cccc2c1C(=O)c1c(O)c3c(c(O)c1C2=O)C[C@@](O)(C(=O)CO)C[C@@H]3O[C@H]1C[C@H](N)[C@H](O)[C@H](C)O1 [Dox, doxorubicin]
[1]
  percentage of beta-Gal-positive cells: increase
[2]
  percentage of beta-Gal-positive cells: increase
[3]
  LDL uptake in EC d6 progeny of treated EC d4: noticably reduced LDL uptake
[4]
  DSB numbers (γH2AX / 53BP1 foci): clear increase
[5]
  nuclear γH2AX foci: significant increase
[6]
  ZO1 assembly in treated EC d6: clearly visible gaps
[7]; EC d4 + 0.005 µM 48 h
  Flk1 mRNA: 18.23 Fold of mESC
  Nanog mRNA: 0.03 Fold of mESC
  Oct4 mRNA: 0.02 Fold of mESC
  Pecam1 mRNA: 0.78 Fold of mESC
  Tie1 mRNA: 90.91 Fold of mESC
  VE-cad mRNA: 653.73 Fold of mESC
  Gpx4 mRNA: 1.07 Fold of untreated control
  Slc7a11 mRNA: 1.71 Fold of untreated control
[7]; [10]
  Ccl2 mRNA: 2.40 Fold of untreated control
  Icam-1 mRNA: 3.06 Fold of untreated control
  Vcam-1 mRNA: 0.44 Fold of untreated control
  iNos mRNA: 4.75 Fold of untreated control
[7]; [11]
  Ccl2 mRNA: 242.22 Fold of untreated control
  Icam-1 mRNA: 14.94 Fold of untreated control
  Vcam-1 mRNA: 1.13 Fold of untreated control
  eNos mRNA: 157.09 Fold of untreated control
  iNos mRNA: 4.95 Fold of untreated control
[7]; EC d4 + 0.005 µM 48 h, Fig 2D
  Atp7a mRNA: 1.11 Fold of control
  Ctr2 mRNA: 1.25 Fold of control
  Mdr1 mRNA: 1.46 Fold of control
  Mrp1 mRNA: 1.32 Fold of control
  Oct2 mRNA: 0.33 Fold of control
[7]; EC d4 + 0.005 µM 48 h, Fig 7B
  Cdkn1a mRNA: 1.42 Fold of untreated control
  Cdkn2a mRNA: 1.12 Fold of untreated control
  Glb1 mRNA: 0.97 Fold of untreated control
  Il6 mRNA: 0.95 Fold of untreated control
  Il8 mRNA: 1.26 Fold of untreated control
  Tp53 mRNA: 0.98 Fold of untreated control
[7]; EC d4 + 0.05 µM 48 h
  Flk1 mRNA: 26.95 Fold of mESC
  Nanog mRNA: 0.02 Fold of mESC
  Oct4 mRNA: 0.02 Fold of mESC
  Pecam1 mRNA: 1.42 Fold of mESC
  Tie1 mRNA: 146.88 Fold of mESC
  VE-cad mRNA: 1297.80 Fold of mESC
  Gpx4 mRNA: 1.35 Fold of untreated control
  Slc7a11 mRNA: 3.43 Fold of untreated control
[7]; [12]
  Ccl2 mRNA: 23.54 Fold of untreated control
  Icam-1 mRNA: 53.37 Fold of untreated control
  Vcam-1 mRNA: 0.085 Fold of untreated control
  eNos mRNA: 239.30 Fold of untreated control
  iNos mRNA: 3.20 Fold of untreated control
[7]; [13]
  Ccl2 mRNA: 2314.32 Fold of untreated control
  Icam-1 mRNA: 154.74 Fold of untreated control
  Vcam-1 mRNA: 0.39 Fold of untreated control
  eNos mRNA: 234.32 Fold of untreated control
  iNos mRNA: 3.41 Fold of untreated control
[7]; EC d4 + 0.05 µM 48 h, Fig 2D
  Atp7a mRNA: 1.81 Fold of control
  Atp7b mRNA: 0.54 Fold of control
  Ctr2 mRNA: 1.38 Fold of control
  Mdr1 mRNA: 105.13 Fold of control
  Mrp1 mRNA: 1.43 Fold of control
  Oct2 mRNA: 0.53 Fold of control
[7]; EC d4 + 0.05 µM 48 h, Fig 5C
  Brca1 mRNA: 0.25 Fold of mESC
  Chk1 mRNA: 0.34 Fold of mESC
  Rad51 mRNA: 0.27 Fold of mESC
[7]; EC d4 + 0.05 µM 48 h, Fig 6D
  Pgc1a mRNA: 24.33 Fold of untreated control
[7]; EC d4 + 0.05 µM 48 h, Fig 7B
  Cdkn1a mRNA: 4.89 Fold of untreated control
  Cdkn2a mRNA: 3.09 Fold of untreated control
  Glb1 mRNA: 1.54 Fold of untreated control
  Il6 mRNA: 1.91 Fold of untreated control
  Il8 mRNA: 25.17 Fold of untreated control
[7]; EC d4 + 0.05 µM 48 h, Fig 8C
  Cldn5 mRNA: 1.35 Fold of EC d4 or d6
  Ocln mRNA: 1.78 Fold of EC d4 or d6
  Tjp1 mRNA: 2.10 Fold of EC d4 or d6
[7]; EC d4 + 0.05 µM 48 h, Fig 8F
  Ldlr mRNA: 0.45 Fold of untreated control
[8]
  number of EdU-positive cells: significant drop
[9]
  VE-cadherin cell-cell junctions in EC d6 differentiated from treated EC d4: disturbed

— publication PMC13308190, “Endothelial progenitor cell susceptibility to DNA damaging and DDR-modulating compounds determines endothelial differentiation accuracy” (Stem Cell Research & Therapy, 2026)
